The source of these data is US20080234232A1, “Methods and compositions for targeting AFAP” (priority 2007, published 2008).

Test [1] concerns the target T1, PI3K (Mus musculus, UniProt P42337).
T1 construct: a PI3K kinase activity assay performed using anti-p1100α immunoprecipitates; endogenous in cells; host or cells: SYF/cSrc mouse embryo fibroblasts (lysate, anti-p110α immunoprecipitate)
The test is described as follows: In vitro PI3K kinase assay on anti-p110α immunoprecipitates of treated SYF/cSrc cells. In kind it is cell-based. Conditions: SYF/cSrc cells serum-starved, 100 nM PMA for 5 or 15 minutes. As to the method:
FIG. 3: PMA treatment results in an increase in PI3K activation, in vitro. SYF/cSrc cells were cultured under serum-free conditions for 24 hours. Cells were unstimulated or stimulated with 10% serum (positive control), 100 nM PMA for 5 or 15 minutes. Cells were then lysed in kinase assay buffer and a PI3K kinase activity assay performed using anti-p1100α immunoprecipitates to measure PMA-induced incorporation of [^32p] into phosphoinositide substrates.
PI3K activity was determined using the In vitro PI3K kinase assay as previously described (Jiang, B. H. et. al., 1998). Cells were serum-starved 24 hours. The media was changed and cells were then treated with either 10% fetal calf serum or 100 nM PMA for 5 or 15 minutes alone or in conjunction with 6 μM bisindolylmaleimide [i] or 10 μM LY294002 for six hours as a negative control. Upon completion of the incubation, the cells were lysed in cold kinase lysis buffer [150 mM NaCl, 100 mM Tris pH 8.0, 1% Triton X-100, 5 mM EDTA, 10 mM NaF, plus inhibitors (1 mg/ml leuptin, 1 mg/ml peptatin, 0.5 M sodium vanadate, 1 mg/ml aprotinin, and 1M DTT)]. Five hundred micrograms (500 μg) of protein was incubated with p110α antibody overnight at 4° C. Forty microliters (40 μl) of protein A/G PLUS agarose beads (50% slurry) was added and incubated for an additional two hours. […]

The subject of test [2] is cSrc. The test is described as follows: Western blot of phospho-Src family (Y416) after PMA treatment. The test is classed as cell-based, mouse. Particulars: 100 nM PMA 15 min. On the procedure: E) SYF, SYF/cSrc, and p85−/− were treated with 100 nM PMA for 15 minutes, 40 μg cell lysate resolved by SDS-PAGE and western blot analysis performed to evaluate phospho-Src family (Y416)(1:1000) and cSrc (1:500) as described in the methods section. Beta-actin (1:5000) was used as a loading control.
All cells were cultured to 70-80% confluence, serum-starved for 16 hours, and treated as described above. The cells were lysed and western analysis performed as previously described (Guappone, A. C. et. al., 1997). Membranes were probed using the following antibodies diluted in 1× Tris-buffered saline plus 0.1% Tween-20 (TBS-T) containing 5% nonfat milk, except were indicated: 1:10000 AFAP-110 pAb (F1), 1:1000 Phospho-Src family Tyrosine 416 (Cell Signal) in 5% BSA, 1:500 cSrc (clone N-16: Santa Cruz Biotechnology), 1:1000 p85α (BD Biosciences), 1:1000 p110α (BD Biosciences), 1:1000 PKCα (BD Biosciences), and 1:5000 β-actin in 1% BSA (Sigma).
(A western blot detects proteins with antibodies after separation by electrophoresis.)

Test [3] has as its system cSrc. The test is described as follows: Immunofluorescence: translocation of cSrc from the perinuclear region to the cell periphery. In kind it is cell-based, mouse. Particulars: 100 nM PMA. As to the method: FIG. 2: Inhibition of PI3K blocks translocation of cSrc from the perinuclear region of mouse embryo fibroblast in response to PMA treatment. SYF and p85−/− null cells were transiently transfected with cSrc and labeled for avian cSrc using EC10, an avian-specific monoclonal antibody (1:500). EC10 was visualized with anti-mouse Atexa Fluor 488 (false colored red for consistency). Cells treated with 100 nM PMA (panel b) induced translocation of cSrc to the cell periphery as indicated by the arrows. However, cells treated with 100 nM PMA in conjunction with 6 μM bisindolylmaleimide (panel c) or 10 μM LY (panel d) blocked the translocation of cSrc as indicated by the arrows. […] (n=nucleus) Bars represent 20 μM.
SYF, SYF/cSrc, p85α+/+ and p85−/− cells were cultured in standard culture media. Transient transfections of SYF, SYF/cSrc, p85α+/+ cells for immunofluorescence were carried out using LipofectAMINE™ Reagent (Invitrogen) as per manufacturer's protocol. Briefly, Approximately 5.0-8.0×10^4 cells per well were transfected at 50-70% confluent on coverstips with 2-4 μg of plasmid DNA and incubated for 3-4 hours. Thirty-six hours after transfection, cells were serum starved for 12 hours, treated, and subsequently fixed and permeablized as previously described (Qian, Y. et. al., 1998). Cells were treated with a PKC activator, 100 nM PMA for 5 or 15 minutes or in combination with the following pretreatments; a PKC inhibitor, 6 μM bisindolylmaleimide [I] for six hours; or PI3K inhibitor, 10 μM LY294002 for six hours; 50 nM Wortmannin for 30 minutes; and/or a Src family inhibitor, 5 μM PP1 for six hours. For actin labeling, a 1:500 dilution of TRITC-phalloidin was used as labeled in the figures. Primary antibody concentrations used were diluted in 5% Bovine Serum Albumin (BSA) dissolved in 1× phosphate-buffered saline (PBS): EC10 mAb-1:500; Phospho-Src Family (Y416) pAb-1:250; Anti-PI-3,4,5-P3 mAb-1:100; Anti-AFAP-110 (F1)pAb-1:1000; Anti-cSrc pAb-1:500; Anti-flag-1:1000. […]

Molecules are shown by their SMILES.

T1 sequence (P42337 whole entry): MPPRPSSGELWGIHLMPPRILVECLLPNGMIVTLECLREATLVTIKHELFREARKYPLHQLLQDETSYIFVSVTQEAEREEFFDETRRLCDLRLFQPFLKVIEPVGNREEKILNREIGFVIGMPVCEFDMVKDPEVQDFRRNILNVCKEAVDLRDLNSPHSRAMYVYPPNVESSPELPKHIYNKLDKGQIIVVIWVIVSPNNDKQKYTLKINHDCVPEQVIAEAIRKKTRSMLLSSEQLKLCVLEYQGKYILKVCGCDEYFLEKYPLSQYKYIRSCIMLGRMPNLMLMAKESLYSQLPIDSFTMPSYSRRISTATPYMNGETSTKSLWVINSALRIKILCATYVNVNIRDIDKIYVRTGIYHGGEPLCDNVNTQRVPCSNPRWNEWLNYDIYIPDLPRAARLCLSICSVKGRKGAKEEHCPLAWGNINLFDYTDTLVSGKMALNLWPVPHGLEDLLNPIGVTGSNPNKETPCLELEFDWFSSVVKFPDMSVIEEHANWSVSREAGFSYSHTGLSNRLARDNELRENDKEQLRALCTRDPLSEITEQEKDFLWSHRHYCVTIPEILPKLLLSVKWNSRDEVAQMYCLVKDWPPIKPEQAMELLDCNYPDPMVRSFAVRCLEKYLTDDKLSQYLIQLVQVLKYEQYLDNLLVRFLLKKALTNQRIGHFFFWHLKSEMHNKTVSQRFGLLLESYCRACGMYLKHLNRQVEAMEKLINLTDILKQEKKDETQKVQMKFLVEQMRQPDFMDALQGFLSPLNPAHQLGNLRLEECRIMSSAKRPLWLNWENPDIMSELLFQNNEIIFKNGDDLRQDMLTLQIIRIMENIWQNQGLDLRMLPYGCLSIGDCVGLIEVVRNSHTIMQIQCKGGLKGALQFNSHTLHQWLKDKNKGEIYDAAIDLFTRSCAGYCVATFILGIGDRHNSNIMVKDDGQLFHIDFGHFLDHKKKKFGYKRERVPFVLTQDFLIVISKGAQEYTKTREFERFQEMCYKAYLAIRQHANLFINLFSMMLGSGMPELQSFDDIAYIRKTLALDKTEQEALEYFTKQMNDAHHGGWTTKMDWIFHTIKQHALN
T1 sequence (P26450 whole entry partner): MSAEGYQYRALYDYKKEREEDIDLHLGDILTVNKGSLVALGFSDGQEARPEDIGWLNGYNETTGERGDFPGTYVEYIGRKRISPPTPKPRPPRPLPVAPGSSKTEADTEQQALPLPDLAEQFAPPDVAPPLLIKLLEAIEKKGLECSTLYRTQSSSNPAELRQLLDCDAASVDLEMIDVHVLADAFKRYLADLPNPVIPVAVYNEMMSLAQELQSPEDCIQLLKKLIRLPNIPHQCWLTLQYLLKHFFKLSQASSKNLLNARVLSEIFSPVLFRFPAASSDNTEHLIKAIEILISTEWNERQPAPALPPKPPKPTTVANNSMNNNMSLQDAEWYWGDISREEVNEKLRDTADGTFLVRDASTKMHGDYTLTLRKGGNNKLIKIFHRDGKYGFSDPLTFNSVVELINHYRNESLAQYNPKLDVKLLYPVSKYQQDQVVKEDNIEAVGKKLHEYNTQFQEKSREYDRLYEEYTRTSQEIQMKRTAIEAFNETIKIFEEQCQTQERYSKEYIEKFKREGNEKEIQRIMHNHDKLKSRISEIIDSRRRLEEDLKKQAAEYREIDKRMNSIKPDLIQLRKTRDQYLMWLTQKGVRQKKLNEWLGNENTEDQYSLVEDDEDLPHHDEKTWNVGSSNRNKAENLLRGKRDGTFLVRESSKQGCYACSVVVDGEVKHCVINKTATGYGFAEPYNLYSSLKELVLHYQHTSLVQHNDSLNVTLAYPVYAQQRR

Regarding `CCCCCCCCCCCCCC(=O)O[C@@H]1[C@@H](C)[C@@]2(O)[C@@H](C=C(CO)C[C@]3(O)C(=O)C(C)=C[C@@H]23)[C@@H]2C(C)(C)[C@]12OC(C)=O` [PMA, Phorbol 12-myristate 13-acetate], in test [1], the “PI3K activity (incorporation of 32P into phosphoinositide substrate)” value is reported as “significant increase”. Besides, the “tyrosine416 phosphorylation of cSrc” value in test [2] (SYF/cSrc cells) is “induced”. In addition, the “cSrc activation (western blot)” value in test [2] (mouse embryo fibroblasts lacking the p85 regulatory subunit) was “failed to induce”. Besides, the figures for the “translocation of cSrc on PMA treatment” value in test [3] (SYF cells transfected with cSrc) and in test [3] (p85−/− cells) were “induced cSrc to translocate from the perinuclear region to the cell periphery” and “cSrc remained in the perinuclear region”, respectively.
